Measurements as given in patent publication EP0329361A2, “2-pyranone derivatives and process for production thereof” (priority 1988, dated 1989).

Assays:
Botrytis cinerea RR-4 = test: Disease suppressive activity against gray mold, cucumber seedling cotyledon test; assay type: in vivo; conditions: strain RR-4 (multi-resistant strain), incubated at 20°C for three days
Experimental: (§1) The disease suppressive activity of the present compounds I-a, I-c (and I-b), I-d (and I-e), I-f, I-g, I-h, and I-i against the gray mold was tested by the following procedure. A solution of the present compound having a predetermined concentration was coated,with an absorbent cotton block, on the cotyledon of a cucumber seedling seven days after seeding. One day after the coating, an agar disk having a diameter of 5 mm containing Botrytis cinerea was put on the coated cotyledon, the plant was incubated at 20°C for three days, and the disease suppresive activity of the tested compound was observed. In Table 4, Botrytis cinerea RR-4 is a strain resistant to antimicrobial agents (multi-resistant strain), isolated from a diseased seedling of egg plant, and Botrytis cinerea S-9 is a strain sensitive to antimicrobial agents, isolated from a diseased petal of orange blossom. Note, the extent of the disease suppressive effect is expressed by symbols + (no lesion), ± (lesion having a diameter of less than 10 mm formed), and - (lesion having a diameter of not less than 10 mm formed).

Botrytis cinerea S-9 = test: as above; assay type: in vivo; conditions: strain S-9 (sensitive to antimicrobial agents), incubated at 20°C for three days
Experimental: as §1

[1] = 8 ppm coated on cucumber seedling cotyledon
[2] = 32 ppm coated on cucumber seedling cotyledon
[3] = 125 ppm coated on cucumber seedling cotyledon

## CCC1C=CC(=O)OC1C=CC(O)(CCN)C(CC(O)C=CC=CC1CCCC(OC(=O)CCCCC(C)C)C1)OP(=O)(O)O (stereo not drawn) [I-h]
Botrytis cinerea RR-4; [1]
  Disease suppressive effect to Botrytis cinerea: - (- (lesion having a diameter of not less than 10 mm formed))
Botrytis cinerea RR-4; [2]
  Disease suppressive effect to Botrytis cinerea: +
Botrytis cinerea S-9; [1]
  Disease suppressive effect to Botrytis cinerea: - (- (lesion having a diameter of not less than 10 mm formed))
Botrytis cinerea S-9; [2]
  Disease suppressive effect to Botrytis cinerea: +

## CCC(C)CCC(=O)OC1CCCC(C=CC=CC(O)CC(OP(=O)(O)O)C(O)(C=CC2OC(=O)C=CC2CC)CCN)C1 (stereo not drawn) [I-g]
Botrytis cinerea RR-4; [1]
  Disease suppressive effect to Botrytis cinerea: +
Botrytis cinerea RR-4; [2]
  Disease suppressive effect to Botrytis cinerea: +
Botrytis cinerea S-9; [1]
  Disease suppressive effect to Botrytis cinerea: +
Botrytis cinerea S-9; [2]
  Disease suppressive effect to Botrytis cinerea: +

## CC12CC1(C)C(=O)N(c1cc(Cl)cc(Cl)c1)C2=O (stereo not drawn) [Procymidone, reference compound]
Botrytis cinerea RR-4; [2]
  Disease suppressive effect to Botrytis cinerea: - (- (lesion having a diameter of not less than 10 mm formed))
Botrytis cinerea RR-4; [3]
  Disease suppressive effect to Botrytis cinerea: - (- (lesion having a diameter of not less than 10 mm formed))
Botrytis cinerea S-9; [2]
  Disease suppressive effect to Botrytis cinerea: - (- (lesion having a diameter of not less than 10 mm formed))
Botrytis cinerea S-9; [3]
  Disease suppressive effect to Botrytis cinerea: +

## CCCCCCCC(=O)OC1CCCC(C=CC=CC(O)CC(OP(=O)(O)O)C(O)(C=CC2OC(=O)C=CC2CC)CCN)C1 (stereo not drawn) [I-i]
Botrytis cinerea RR-4; [1]
  Disease suppressive effect to Botrytis cinerea: - (- (lesion having a diameter of not less than 10 mm formed))
Botrytis cinerea RR-4; [2]
  Disease suppressive effect to Botrytis cinerea: +
Botrytis cinerea S-9; [1]
  Disease suppressive effect to Botrytis cinerea: - (- (lesion having a diameter of not less than 10 mm formed))
Botrytis cinerea S-9; [2]
  Disease suppressive effect to Botrytis cinerea: +

## CCC1C=CC(=O)OC1C=CC(O)(CCN)C(CC(O)C=CC=CC1CCCC(OC(=O)C2CCCCC2)C1)OP(=O)(O)O (stereo not drawn) [I-f]
Botrytis cinerea RR-4; [1]
  Disease suppressive effect to Botrytis cinerea: +
Botrytis cinerea RR-4; [2]
  Disease suppressive effect to Botrytis cinerea: +
Botrytis cinerea S-9; [1]
  Disease suppressive effect to Botrytis cinerea: +
Botrytis cinerea S-9; [2]
  Disease suppressive effect to Botrytis cinerea: +

## CCC1C=CC(=O)OC1C=CC(O)(CCN)C(CC(O)C=CC=CC1CCCCC1)OP(=O)(O)O (stereo not drawn) [I-a]
Botrytis cinerea RR-4; [2]
  Disease suppressive effect to Botrytis cinerea: - (- (lesion having a diameter of not less than 10 mm formed))
Botrytis cinerea RR-4; [3]
  Disease suppressive effect to Botrytis cinerea: +
Botrytis cinerea S-9; [2]
  Disease suppressive effect to Botrytis cinerea: - (- (lesion having a diameter of not less than 10 mm formed))
Botrytis cinerea S-9; [3]
  Disease suppressive effect to Botrytis cinerea: +
